Source: US11072611B2, “Compounds and pharmaceutical compositions thereof for the treatment of inflammatory disorders” (Galapagos NV, priority 2013, dated 2021)

Tests used:
LPA 18:2 [1] = assay: Rat whole blood (plasma) LPA assay; format: biochemical; conditions: 2 h at 37° C., LPA 18:2 by LC-MS/MS
Method: (§1) Whole blood is collected from rats or mouse by exsanguinations on sodium heparin tube, then after centrifugation at 3000 rpm for 15 min at 4° C., plasma is stored at −80° C. Compounds are diluted in DMSO in concentration dependent manner then 0.5 μL are dispensed into 96-well plate placed in ice. Plasma is defrosted on ice then 49.5 μL of plasma are added into the well containing 0.5 μL of compound (1% DMSO final). Plates are covered with a lid in polypropylene and incubated at +37° C., 5% CO2, for 2 h under gentle shaking (except controls which are stored at −20° C.).
(§2) At the end of the incubation, controls are defrosted in ice and transferred in the incubated plates for LC-MS/MS analysis with a non GLP-validated method. For the analysis, plasma proteins from a 10 μL incubated plates are precipitated with an excess of methanol containing the internal standard, LPA 17:0. After centrifugation, the corresponding supernatant is injected on a C18 column. Analytes are eluted out of the column under isocratic conditions. An API5500 QTRAP mass spectrometer (ABSciex™) is used for the detection of LPA 18:2. No calibration curve is prepared for LPA 18:2, however relative quantities are evaluated based on the peak area.

[2] = test system: tobacco smoke induced recruitment of inflammatory cells to the lungs; assay: Tobacco smoke (TS) model, lungs inflammatory cells recruitment; format: in vivo, female C57BL/6J mice; conditions: TS-exposed mice
Method: The aim of this experiment is to evaluate the efficacy and potency of a test compound administered p.o., once or twice daily on days 6 to 11, vs reference compounds, on pulmonary inflammation induced by 11 days of TS-exposure in female C57BL/6J mice, by assessing the effect of a test compound on the tobacco smoke induced recruitment of inflammatory cells to the lungs.
The test compounds are formulated in PEG200/0.5% methylcellulose (25/75, v/v) and are given at a dose volume of 10 mL/kg. Roflumilast and Dexamethasone are included as positive […] control, respectively. Each treatment group consists of 10 mice.
A first group of mice is subjected to daily TS-exposure for 5 consecutive days and sacrificed on the day 6, 24 h after the final TS-exposure.
A second group is exposed to air for 5 consecutive days (sham exposure) and sacrificed on the day 6, 24 h after the final air-exposure.
Compound and reference-treated groups are subjected to daily TS-exposure for 11 consecutive days and sacrificed on the day 12, 24 h after the final TS-exposure. Mice are dosed p.o. on days 6 to 11, twice daily, 1 h prior to and 6 h after each TS-exposure, with either vehicle, or the test compound at 3, 5, 10 or 30 mg/kg. Another group is dosed p.o. on days 6 to 11, once daily, 1 h prior to each TS-exposure, with either vehicle, or the test compound at 10 mg/kg.
An additional group is dosed p.o., once daily, on days 6 to 11, with roflumilast at 5 mg/kg, 1 h prior to each TS-exposure. Dexamethasone is dosed p.o., twice daily, on days 6 to 11, at 0.3 mg/kg, 1 h prior to and 6 h after each TS-exposure.
For each mouse, a BAL is performed using 0.4 mL of PBS. The lavage fluid is centrifuged, the supernatant removed and the resulting cell pellet re-suspended for total cell counts and cytospin slide preparation. […]
The lungs are dissected out and the left lobes are removed, snap-frozen and stored at −80° C. […] Cell data are presented as individual data points for each animal and the mean value calculated for each group. […]
Percentage inhibitions for the cell data are calculated using the formula below: […]

LPA 18:2 [3] = assay: Human whole blood (plasma) LPA assay; format: biochemical; conditions: 2 h at 37° C., LPA 18:2 by LC-MS/MS
Method: as §1, with “Blood is” for “Whole blood is”, “from healthy volunteers who gave informed consent into” for “from rats or mouse by exsanguinations on”, “heparin tubes by venipuncture,” for “heparin tube,”, “then gently inverted several times to prevent clotting. Tubes are centrifuged” for “then after centrifugation”, “4° C. then” for “4° C.,”
as §2

Row | SMILES | IC50 (LPA 18:2 [1]) | number of cells recovered in the BALF (macrophage cells, epithelial cells, neutrophils) ([2]; 10 mg/kg twice daily p.o.) | number of cells recovered in the BALF (macrophage cells, epithelial cells, neutrophils) ([2]; 3 mg/kg twice daily p.o.) | IC50 (LPA 18:2 [3])
1 | CCc1nc2c(F)cc(N3CCN(CC(=O)N4CC(O)C4)CC3)cn2c1N(C)c1nc(-c2ccc(F)cc2)c(C#N)s1 [Compound 12, 2-((2-ethyl-8-fluoro-6-(4-(2-(3-hydroxyazetidin-1-yl)-2-oxoethyl)piperazin-1-yl)imidazo[1,2-a]pyridin-3-yl)(methyl)amino)-4-(4-fluorophenyl)thiazole-5-carbonitrile] | 0.01 to 100 nM | significantly inhibited |  | 
2 | CCc1nc2c(C)cc(N3CCN(CC(=O)N4CC(O)C4)CC3)cn2c1N(C)c1nc(-c2ccc(F)cc2)c(C#N)s1 [Compound 2, 2-((2-ethyl-6-(4-(2-(3-hydroxyazetidin-1-yl)-2-oxoethyl)piperazin-1-yl)-8-methylimidazo[1,2-a]pyridin-3-yl)(methyl)amino)-4-(4-fluorophenyl)thiazole-5-carbonitrile] |  | significantly inhibited | significantly inhibited | 
3 | CCc1nc2ccc(C3CCN(CC(=O)N4CC(O)C4)CC3)cn2c1N(C)c1nc(-c2ccc(F)cc2)cs1 [Compound 110, 2-(4-(2-ethyl-3-((4-(4-fluorophenyl)thiazol-2-yl)(methyl)amino)imidazo[1,2-a]pyridin-6-yl)piperidin-1-yl)-1-(3-hydroxyazetidin-1-yl)ethanone] | > 1000 nM |  |  | > 1000 nM
4 | CCc1nc2ccc(C3CCN(S(C)(=O)=O)CC3)cn2c1N(C)c1nc(-c2ccc(F)cc2)cs1 [Compound 80, N-(2-ethyl-6-(1-(methylsulfonyl)piperidin-4-yl)imidazo[1,2-a]pyridin-3-yl)-4-(4-fluorophenyl)-N-methylthiazol-2-amine] |  |  |  | > 1000 nM
